Experimental data from PubChem BioAssay (NCI).
“And” between values parts separate entries of the source, which are not always exact repeats. Equal values may be shown once.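 Assay format: 96-well plates, 48-hour exposure. Here, GI50 denotes the concentration required for 50% inhibition of growth. At the TGI there is no net growth.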 Numbered stars: 1 amine (or outer) side, 2 acyl side, 3 side chain; on linkers, the order of the positions; unused ones are H or OH. Bridge positions count the residues as written; N and C are the ends. Square brackets hold non-standard residues; d marks the D form. Peptide text beside a SMILES is read from it. I, II: the chains in the order shown. Actinocin(1to9) = Cc1c2oc3c(C)ccc(C(=O)[*:2])c3nc-2c(C(=O)[*:1])c(N)c1=O; NMeY = CN[CH](Cc1ccc(O)cc1)C(=O)O; Sar = CNCC(=O)O

Assays:
Assay in all cases: DTP human tumour cell line panel, 48 h
SW-620 colon = test system: SW-620 colon
HOP-92 NSCLC = test system: HOP-92 NSCLC
MDA-MB-231 breast = test system: MDA-MB-231 breast
SK-MEL-2 melanoma = test system: SK-MEL-2 melanoma
PC-3 prostate = test system: PC-3 prostate
DU-145 prostate = test system: DU-145 prostate
COLO 205 colon = test system: COLO 205 colon
SK-MEL-28 melanoma = test system: SK-MEL-28 melanoma
OVCAR-5 ovarian = test system: OVCAR-5 ovarian
HS 578T breast = test system: HS 578T breast

Structure (SMILES)	GI50 (SW-620 colon)	TGI (SW-620 colon)	GI50 (HOP-92 NSCLC)	TGI (HOP-92 NSCLC)	GI50 (MDA-MB-231 breast)	TGI (MDA-MB-231 breast)	GI50 (SK-MEL-2 melanoma)	TGI (SK-MEL-2 melanoma)	GI50 (PC-3 prostate)	TGI (PC-3 prostate)	GI50 (DU-145 prostate)	TGI (DU-145 prostate)	GI50 (COLO 205 colon)	TGI (COLO 205 colon)	GI50 (SK-MEL-28 melanoma)	TGI (SK-MEL-28 melanoma)	GI50 (OVCAR-5 ovarian)	TGI (OVCAR-5 ovarian)	GI50 (HS 578T breast)	TGI (HS 578T breast)
COc1ccc2nc3cc(Cl)ccc3c(Nc3cc(CN4CCCC4)c(O)c(CN4CCCC4)c3)c2n1	0.629 µM	4.95 µM	1.04 µM	3.74 µM	1.86 µM	8.17 µM	1.73 µM	3.26 µM	1.53 µM	6.52 µM	2.43 µM	13.6 µM	1.18 µM	2.48 µM	2.15 µM	4.5 µM	2.66 µM	11.9 µM	–	–
CC(=O)[O-].N.N.N.N.[Co+3].[O-][Cl+3]([O-])([O-])[O-].[OH3+]	> 100 µM	> 100 µM	> 100 µM	> 100 µM	–	–	> 100 µM	> 100 µM	–	–	–	–	> 100 µM	> 100 µM	> 100 µM	> 100 µM	> 100 µM	> 100 µM	–	–
CC(C)(C)OC(=O)N[C@@H](Cc1ccccc1)C(=O)N(Cc1ccccc1)C1(C(=O)NCc2ccccc2)CCN(Cc2ccccc2)CC1	3.49 µM	> 100 µM	1.45 µM	5.33 µM	3.01 µM	79 µM	–	–	2.46 µM	> 100 µM	5.38 µM	> 100 µM	1.65 µM	3.32 µM	–	–	–	–	4.22 µM	> 100 µM
COc1ccc([C@@H]2OC(=O)C3C2C(=O)O[C@H]3c2ccc(OC)c(OC)c2)cc1OC (stereo partly drawn)	–	> 100 µM	–	> 100 µM	–	–	–	> 100 µM	–	–	–	–	–	> 100 µM	–	> 100 µM	–	–	–	–
COC(=O)[C@H](Cc1cn(C)cn1)NC(=O)[C@H](Cc1ccccc1)NC(=O)Nc1cc(C(F)(F)F)cc(C(F)(F)F)c1	14.5 µM	30.6 µM	–	–	5.03 µM and 7.85 µM	21.2 µM	17.7 µM	32.3 µM	9.17 µM and 12.4 µM	25.8 µM	13.8 µM	27 µM	15.3 µM	31.6 µM	17.9 µM	35.2 µM	16.8 µM	32.5 µM	15.1 µM	45.1 µM
COc1ccc(CC2C(=O)OC(C)C(NC(=O)c3c4nc5c(C(=O)NC6C(=O)NC(C(C)C)C(=O)N7CCCC7C(=O)N(C)CC(=O)N(C)C(Cc7ccc(OC)cc7)C(=O)OC6C)ccc(C)c5oc-4c(C)c(=O)c3N)C(=O)NC(C(C)C)C(=O)N3CCCC3C(=O)N(C)CC(=O)N2C)cc1 (stereo not drawn) (I: TVP[Sar][NMeY](Me) / II: TVP[Sar][NMeY](Me); ester I:1-I:C, II:1-II:C; linker I:N-II:N via Actinocin(1to9); configuration not given here)	–	–	< 0.01 µM and 0.035 µM	–	–	–	< 0.01 µM and 0.0228 µM	–	–	–	–	–	0.00498 µM	0.113 µM	–	–	< 0.01 µM and 0.0841 µM	> 0.651 µM	< 0.01 µM and 0.00387 µM	< 0.01 µM and 0.0411 µM
N#Cc1cccc(C2C3=C(COC3=O)N(CCO)c3cc4c(cc32)OCO4)c1 (stereo not drawn)	1.53 µM	> 50 µM	2.66 µM	> 50 µM	2.42 µM	> 50 µM	–	–	1.62 µM	> 50 µM	3 µM	> 50 µM	1.58 µM	> 50 µM	25.5 µM	> 50 µM	7.92 µM	> 50 µM	1.3 µM	11.1 µM
CC(=O)[CH-]C(=O)c1ccccc1.CC(=O)[CH-]C(=O)c1ccccc1.[O-]c1ccc2c(c1)OCO2.[O-]c1ccc2c(c1)OCO2.[Ti+4]	32.1 µM	> 100 µM	21.1 µM	> 100 µM	–	–	22.5 µM	57.7 µM	–	–	–	–	32 µM	> 100 µM	32.7 µM	> 100 µM	31.9 µM	> 100 µM	–	–
Nc1ccc(/C=C/c2ccc3cccnc3c2)cc1	–	> 100 µM	–	> 100 µM	–	> 100 µM	–	–	–	> 100 µM	–	> 100 µM	–	> 100 µM	–	> 100 µM	–	> 100 µM	–	> 100 µM
O=c1c2cc3ccccc3n2c(=O)c2cc3ccccc3n12	–	> 100 µM	–	> 100 µM	–	–	–	> 100 µM	–	–	–	–	–	–	–	> 100 µM	–	> 100 µM	–	–
COC(=O)CC[C@]12C[C@]13CC[C@]1(C)C4C(C)C[C@]5(CC(C)C(=O)O5)OC4CC1(C)C3CCC2C(C)(C)O (stereo partly drawn)	–	> 100 µM	–	65.1 µM	–	–	–	82.6 µM	–	–	–	–	–	> 100 µM	–	> 100 µM	–	> 100 µM	–	–
C=C1C(OC(C)=O)CC(OC(C)=O)C2(C)C(OC(C)=O)C(OC(C)=O)C3=C(C)C(OC(=O)/C=C/c4ccccc4)CC(C(OC(C)=O)C12)C3(C)C (stereo not drawn)	–	> 100 µM	–	65.7 µM	–	–	–	> 100 µM	–	–	–	–	–	> 100 µM	–	–	–	> 100 µM	–	–
O=C1NC2C(O)CCCCC2C12CCCCC2 (stereo not drawn)	–	> 100 µM	–	> 100 µM	–	–	–	> 100 µM	–	–	–	–	–	> 100 µM	–	> 100 µM	–	> 100 µM	–	–
COC(=O)N/N=C(\C)CC(=O)Nc1ccc(Cl)cc1	–	> 100 µM	–	> 100 µM	–	–	–	> 100 µM	–	–	–	–	–	> 100 µM	–	> 100 µM	–	> 100 µM	–	–
COc1cc(/C=N/N=C(\N)NO)c([N+](=O)[O-])cc1OC	–	> 100 µM	–	91.7 µM	–	–	–	> 100 µM	–	–	–	–	–	> 100 µM	–	> 100 µM	–	> 100 µM	–	–
C1=CCCC=CCC1.C[PH+](C)C.C[PH+](C)C.C[PH+](C)C.[Cl-].[Ir]	36.4 µM	> 100 µM	28.6 µM	98.8 µM	–	–	23.4 µM	60.4 µM	–	–	–	–	–	–	46.6 µM	> 100 µM	> 100 µM	> 100 µM	–	–
C[CH2][Sn]([CH2]C)([O]C(=O)c1ccc(F)cc1)[O]C(=O)c1ccc(F)cc1	22 µM	46.7 µM	12.7 µM	26 µM	–	–	12.8 µM	17.5 µM	–	–	–	–	20.3 µM	39.6 µM	18.6 µM	34.8 µM	30.5 µM	> 77.2 µM	–	–
COc1ccc2c(c1)CN1CCc3c(cc(OC)c(OC)c3OC)C1C2 (stereo not drawn)	–	> 100 µM	–	> 100 µM	–	–	–	> 100 µM	–	–	–	–	–	> 100 µM	–	> 100 µM	–	> 100 µM	–	–
CC[PH+](CC)CC.[Cl][Au]	0.567 µM	1.98 µM	1.28 µM	2.72 µM	–	–	1.38 µM	2.95 µM	–	–	–	–	1.85 µM	5.79 µM	0.78 µM	2.35 µM	15.2 µM	28.5 µM	–	–
COc1cc2cnc3c4cc(OCc5ccccc5)ccc4ccc3c2cc1OC	–	> 100 µM	–	> 100 µM	–	–	–	63 µM	–	–	–	–	–	74.9 µM	–	> 100 µM	–	> 100 µM	–	–
CO[C@@]1(c2ccccc2)O[C@H]2OCCC2[C@H]1c1ccc(Cl)cc1 (stereo partly drawn)	–	> 100 µM	–	–	–	–	–	80.9 µM	–	–	–	–	–	42.2 µM	–	> 100 µM	–	> 100 µM	–	–
CC1=CCCC2C(C=O)(C1)CC(C)C2(CO)CC/C(=C/CO)CO (stereo not drawn)	–	> 100 µM	–	87.6 µM	–	–	–	–	–	–	–	–	–	> 100 µM	–	> 100 µM	–	–	–	–
